# Target: T1, Solute carrier organic anion transporter family member 1A3 (Rattus norvegicus, UniProt P70502)
# T1 sequence (P70502 whole entry): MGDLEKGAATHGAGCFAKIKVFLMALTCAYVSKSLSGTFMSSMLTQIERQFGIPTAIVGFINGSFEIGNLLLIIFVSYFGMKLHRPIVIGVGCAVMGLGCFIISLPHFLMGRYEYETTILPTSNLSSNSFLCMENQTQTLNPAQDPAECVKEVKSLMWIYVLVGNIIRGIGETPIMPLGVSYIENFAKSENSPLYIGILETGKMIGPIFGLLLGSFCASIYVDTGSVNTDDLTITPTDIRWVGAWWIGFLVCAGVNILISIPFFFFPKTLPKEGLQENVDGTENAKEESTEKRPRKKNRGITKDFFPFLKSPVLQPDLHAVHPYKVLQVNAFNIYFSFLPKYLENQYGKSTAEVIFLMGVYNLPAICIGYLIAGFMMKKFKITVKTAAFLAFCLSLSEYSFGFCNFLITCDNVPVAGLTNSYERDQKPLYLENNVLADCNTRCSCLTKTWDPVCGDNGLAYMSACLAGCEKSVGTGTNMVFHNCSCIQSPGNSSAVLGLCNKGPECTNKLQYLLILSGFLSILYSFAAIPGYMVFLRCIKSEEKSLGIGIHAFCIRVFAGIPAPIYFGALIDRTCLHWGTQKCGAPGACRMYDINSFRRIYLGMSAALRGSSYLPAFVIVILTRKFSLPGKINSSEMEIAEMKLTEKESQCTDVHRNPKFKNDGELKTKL
# Test: TP_TRANSPORTER: inhibition of MTX uptake in OAT-K1-expressing MDCK cells
# Format: functional, cell-based
row,Ki,Structure (SMILES)
1,14.1 µM,Nc1nc2ncc(CNc3ccc(C(=O)N[C@@H](CCC(=O)O)C(=O)O)cc3)nc2c(=O)[nH]1 [FOLIC ACID]
2,8.2 µM,Nc1nc2c(c(=O)[nH]1)N(C=O)C(CNc1ccc(C(=O)N[C@@H](CCC(=O)O)C(=O)O)cc1)CN2 (stereo not given in full) [LEUCOVORIN]
3,1.2 µM,CN1c2c(nc(N)[nH]c2=O)NC[C@@H]1CNc1ccc(C(=O)N[C@@H](CCC(=O)O)C(=O)O)cc1 [LEVOMEFOLIC ACID]

row,Structure (SMILES),Ki
1,Nc1nc(N)c2nc(CNc3ccc(C(=O)N[C@@H](CCC(=O)O)C(=O)O)cc3)cnc2n1 [AMINOPTERIN],0.5 µM
2,O=C1OC(c2ccc(O)c(S(=O)(=O)O)c2)(c2ccc(O)c(S(=O)(=O)O)c2)c2c(Br)c(Br)c(Br)c(Br)c21 [SULFOBROMOPHTHALEIN SODIUM],21 µM

# Source: ChEMBL document CHEMBL2074088, “Trans-stimulation effects of folic acid derivatives on methotrexate transport by rat renal organic anion transporter, OAT-K1” (J Pharmacol Exp Ther, 2000)
